According to patent US9815815B2, “Non-selective kinase inhibitors” (GILEAD SCIENCES, INC., priority 2013, dated 2017):

Assays:
rat MCT+PN model = assay: Telemetry study of PA pressure in the rat MCT+PN model; format: in vivo; settings: for PA systolic pressure: imatinib telemetry study (study 4), 8 min 3x/day
Protocol: Efficacy study in the rat MCT+PN model. Pneumonectomy and implantation of a TRM53P telemetry monitor in the pulmonary artery (Telemetry Research, New Zealand and ADlnstruments, Colorado) was carried out in rats. Two weeks after MCT, PK10453 (Structure 2) was administered three times daily for 1 week. […] Sampling of PA pressure was performed 5 min before each morning dose in ambulatory animals in room air (estimated atmospheric pressure 716 mm Hg based on elevation of animal facility). […] Telemetry data was obtained for 10 min daily before each morning dose for this protocol.

AKT phosphorylation = settings: 0.1 μM; PASMC from control and monocrotaline treated rats; cited from earlier work
[1] = tested on: PDGFAA stimulated phosphorylation of ERK1 and ERK2; assay: PDGFAA stimulated phosphorylation of ERK1 and ERK2 in human fetal lung fibroblasts; format: cell-based; settings: 1 uM
[2] = tested on: PDGFBB stimulated phosphorylation of ERK1 and ERK2; assay: PDGFBB stimulated phosphorylation of ERK1 and ERK2 in human fetal lung fibroblasts; format: cell-based; settings: for PDGFBB stimulated ppERK1 formation: 1 uM
[3] = tested on: PDGFBB stimulated AKT phosphorylation (SER473); settings: 5 μM; PDGFRβ null and PDGFRα null cell lines; cited from earlier work
[4] = tested on: PDGFBB stimulated AKT phosphorylation; assay: In cell Western (ICW), PDGFBB stimulated AKT phosphorylation in human fetal lung fibroblasts; format: cell-based; settings: comparison in words
Protocol: In cell Western (ICW). […] HLFs were maintained in subculture at no more than 6 passages in DMEM with 5% FBS and 4 mM Glutamax at 37° C., 5% CO2. HLFs were plated and grown to 70-80% confluence in 96 well plates then serum-starved for 48 hours. […] Antibodies were detected using IRDye 680LT goat anti-mouse IgG and IRDye 800W goat a-rabbit IgG conjugated antibodies. After washing, the signal was quantified using an Odyssey Infrared Imaging System (LI-COR). Phosphoprotein signal (800 nm) was normalized to total protein signal (700 nm) acquired from each well and experimental duplicates on same plate were averaged and reported.

Protocol for rat MCT model: At the end of the study RVSP pressure was measured; lung and heart fixed in formalin. For measurement of RVSP animals were sedated with isoflurane, intubated via a tracheostomy, and ventilated with a TOPOVENT pressure regulated ventilator (peak inspiratory pressure 18 cm H2O, PEEP 5 cm). After sternotomy, a Scisense high fidelity catheter inserted via the RV apex.
Histology and morphometric analysis. At the end of the study, the heart and lungs were removed from ventilated animals under general anesthesia. Heparinized saline was infused under pressure through the main pulmonary artery. […] The heart was removed, and the RV free wall, interventricular septum and LV free wall dissected and weighed. Buffered formalin (10%) was infused under pressure both through the pulmonary artery and the trachea. Morphometric analysis was performed on H&E stained formalin fixed tissue sectioned at 8 μm. The media area and lumen area of pulmonary arterioles were measured with Image J software by a technician blinded to treatment group. Measurements were made on 20 pulmonary arterioles per section. The ratio of the lumen area to the total media area was determined This ratio normalizes the variation in total pulmonary arteriole area. […] Briefly, pre-capillary arterioles were assigned grade 0 for no evidence of neointimal lesions, grade 1 for less than 50% luminal occlusion, and grade 2 for greater than 50% occlusion.

Cc1ccc(NC(=O)c2ccc(CN3CCN(C)CC3)cc2)cc1Nc1nccc(-c2cccnc2)n1 [Imatinib]
efficacy in the MCT+PN model, in words (rat MCT+PN model; by inhalation): not effective
PA systolic pressure (rat MCT+PN model; day 1): 41.5±3.5 mm Hg
PA systolic pressure (rat MCT+PN model; treatment day 9): 75.1±7 mm Hg
RV end systolic pressure (rat MCT model; 8 min inhalation 3x/day, two weeks): 31.8±1.8 mm Hg
efficacy in the MCT model, in words (rat MCT model; given by inhalation): equally effective
phosphorylation of AKT at Thr308 (AKT phosphorylation): no effect
decreasing PDGF AA stimulated ppERK1 and ppERK2 formation [1]: equally effective
PDGFBB stimulated ppERK1 formation [2]: no effect
PDGFBB stimulated AKT phosphorylation (SER473) [3]: blocked

COc1cc(-c2cncc(N[C@@H](C)c3cccc(NC(=O)c4cnc(C#N)nc4)c3)n2)ccc1O [PK10467]
IC50 for inhibiting PDGFBB stimulated AKT phosphorylation, compared to imatinib [4]: lower IC50 concentrations compared to imatinib

C=CS(=O)(=O)NCc1ccc(C(=O)Nc2cccc([C@H](C)Nc3cncc(-c4ccc(O)c(OC)c4)n3)c2)cc1 [PK10468]
IC50 for inhibiting PDGFBB stimulated AKT phosphorylation, compared to imatinib [4]: lower IC50 concentrations compared to imatinib

COc1cc(-c2cncc(N[C@@H](C)c3cccc(NC(=O)c4cncc(C)c4)c3)n2)ccc1C [PK10569]
IC50 for inhibiting PDGFBB stimulated AKT phosphorylation, compared to imatinib [4]: lower IC50 concentrations compared to imatinib

COc1ccc(-c2cncc(N[C@@H](C)c3cccc(NC(=O)c4cncc(C)c4)c3)n2)cc1OC [PK10571]
IC50 for inhibiting PDGFBB stimulated AKT phosphorylation, compared to imatinib [4]: lower IC50 concentrations compared to imatinib
decreasing PDGF AA stimulated ppERK1 and ppERK2 formation [1]: equally effective
PDGFBB stimulated ppERK1 formation [2]: effective
decreasing PDGF BB stimulated ppERK1 and ppERK2, compared to imatinib ([2]; 1 uM and 10 uM): more effective
ratio diphosphorylated ERK2 to total ERK2 (ppERK2/ERK2) ([2]; PDGFAA or PDGFBB stimulation (10 ng/ml), 1 uM and 10 uM): significantly decreased
ratio diphosphorylated ERK1 to total ERK1 (ppERK1/ERK1) ([2]; PDGFAA or PDGFBB stimulation, 1 μM and 10 μM): significantly decreased
